{"source": "paper PMC3763812", "about": "(Chemical research in toxicology, 2013)", "key": {"mouse skin": {"test_system": "mouse skin", "details": "cited from earlier work"}, "[1]": {"test_system": "ds-DNA in DNA/RuPVP/1B1 films (cyt P450 1B1 supersomes)", "assay": "ECL genotoxicity array, DNA/RuPVP/1B1 films", "type": "biochemical, human", "details": "25 μM B[a]P or 50 μM B[ghi]P with NADPH"}, "[2]": {"details": "with exogenous activation; cited from earlier work"}, "[3]": {"test_system": "ds-DNA in DNA/RuPVP/1A2 films (cyt P450 1A2 supersomes)", "assay": "ECL genotoxicity array, DNA/RuPVP/1A2 films", "type": "biochemical, human", "details": "25 μM B[a]P or 50 μM B[ghi]P with NADPH"}, "[4]": {"test_system": "DNA in PDDA/supersomes/PDDA/DNA biocolloids (1A1 and 1B1 supersomes)", "type": "biochemical, human", "details": "20-mins reaction of B[ghi]P with biocolloid enzyme/DNA reactors"}, "DNA [5]": {"test_system": "DNA", "details": "in vivo and in vitro; cited from earlier work"}, "[6]": {"test_system": "ds-DNA with cyt P4501A1, 1B1 and 1A2 supersomes", "details": "electro-optical toxicity screening arrays"}, "DNA [7]": {"test_system": "DNA", "details": "activated by light without metabolic activation; cited from earlier work"}}, "note": "Entries after “also recorded” stand apart in the source; their conditions may differ."}
{"smiles": "c1cc2ccc3ccc4ccc5cccc6c(c1)c2c3c4c56", "note": "[B[ghi]P, benzo[ghi]perylene]", "values": [{"measurement": "Tumor initiation", "setting": "mouse skin", "result": "not found to initiate tumors; also recorded: negative"}, {"measurement": "Normalized ECL turnover rate (R)", "setting": "[1]", "result": 34.3, "unit": "μg^−1•protein•min^−1•mM"}, {"measurement": "Mutagenicity in the Ames test", "setting": "[2]", "result": "displays mutagenicity"}, {"measurement": "Normalized ECL turnover rate (R)", "setting": "[3]", "result": 23.3, "unit": "μg^−1•protein•min^−1•mM"}, {"measurement": "Detection of DNA adducts of B[ghi]P 3,4-oxide (mass transitions of Table 3)", "setting": "[4]", "result": "no peaks were found"}, {"measurement": "Binding of active metabolites to DNA", "setting": "DNA [5]", "result": "active metabolites can bind to DNA"}, {"measurement": "Lower rate of DNA damage by B[ghi]P metabolites than benzo[a]pyrene", "setting": "[6]", "result": 3, "unit": "fold"}, {"measurement": "DNA damage in Comet assays", "setting": "DNA [7]", "result": "yielded DNA damage"}]}
